# Measured values as given in PubChem BioAssay AID1963451 (Molecular Pharmacology Branch, DTP, NCI, 2024).
# pIC50: −log10 of the molar value. “And” between values parts separate entries of the source, which are not always exact repeats. Identical values can stand only once.
# System: 521955-158-R6-J3-PDC complex spheroid growth, % test/control
# Test: Anticancer human tumor 521955-158-R6-J3-PDC patient-derived pancreatic carcinoma cell line growth inhibition [Asc]
# Settings: for viability, T/C: stronger effect = lower value
# Procedure: Multicellular complex tumor spheroid response to apoptosis pathway targeting inhibitors Alrizomadlin, Pelcitoclax, and Dasminapant in combination with a variety of drugs and investigational agents in selected tumor cell lines
# The MDM2 inhibitor alrizomadlin, the Bcl-2/Bcl-xL inhibitor pelcitoclax, and the IAPs inhibitor dasminapant were evaluated both individually and in combination with standard of care and investigational anticancer small molecules within a complex spheroid model of solid tumors. . Complex spheroids include a stromal component modeled by human endothelial cells (HUVEC) and fibroblasts modeled by human mesenchymal stem cells (MSCs). The concentration ranges selected for each drug and investigational agent were based upon clinically achievable concentrations if the clinical Cmax of the agent was known.
# Compounds. The drugs and investigational agents: alrizomadlin (APG-115; NSC831270), pelcitoclax (APG-1252; NSC835773), dasminapant (APG-1387;NSC834197), TAK-243 (NSC785004), copanlisib (NSC809693), olaparib (NSC753686), talazoparib (NSC767125), cobimetinib (NSC 768068), eltanexor (KPT-8602, NSC 794443), abemaciclib (NSC 768073), sotorasib (NSC818433), adagrasib (NSC 831453), MRTX-1133 (NSC 836407), Iadademestat (ORY1001, NSC 806812), and RMC-4630 (NSC839698), were obtained from the NCI Developmental Therapeutics Program Chemical Repository. The FDA-approved anticancer drug set is available from the Developmental Therapeutics Program at https://dtp.cancer.gov/organization/dscb/obtaining/available plates.htm. […] The stock solutions were prepared in dimethyl sulfoxide (DMSO, Sigma-Aldrich, St. Louis, MO, cat. D2650) at 800-fold the tested concentration and stored at -70 degrees C prior to their use. All drugs and investigational agents were tested over a range starting from a high concentration at or near the clinical Cmax and decreasing in half-log increments. If the clinical Cmax for an agent had not been determined, the highest concentration tested was 10 microM.
# The patient-derived cancer (PDC) cell lines include five colon adenocarcinomas: 186277-243-T-J2-PDC, 616215-338-R-J1-PDC, 439559-082-T-J2-PDC, 463943-066-T-J2-PDC, and 519858-162-T-J1-PDC; three pancreatic carcinomas: 323965-272-R-J2-PDC, 521955-158-R6-J3-PDC, and 521955-158-R2-J5-PDC; two uterine sarcomas: 327498-152-R-J2-PDC and 993429-296-R-J1-PDC; two rhabdomyosarcomas: 755483-174-R-J1-PDC and 772245-204-R-J1-PDC; two soft tissue sarcomas: 126254-015-R-J1-PDC and 494315-158-R-J1-PDC; two malignant fibrous histiocytomas: 317291-083-R-J1-PDC and 596521-263-R-J1-PDC; two breast carcinomas: 171881-019-R-J1-PDC and 885512-296-R-J2-PDC; and one ovarian carcinoma: 6556581-035-R-J-PDC were obtained from the NCI PDMR, (https://pdmr.cancer.gov). The established cell lines HSSY-2 synovial sarcoma (RRID:CVCL 8719), SYO-1 synovial sarcoma (RRID:CVCL_7146), MPNST malignant peripheral neural sheath tumor were obtained from the Sloan Kettering Institute. The following established cell lines were purchased from the American Type Culture Collection (ATCC, Manassas, VA), Sor the received from the NCI repository:, PANC-1 pancreatic carcinoma (CRL-1469, RRID:CVCL_0480), OVCAR-5 ovarian carcinoma (RRID:CVCL_1628), OVCAR-8 ovarian carcinoma (RRID:CVCL_1629), , MCF-7 breast carcinoma (CRL-12584, RRID:CVCL_0031), MDA-MB-231 breast carcinoma (CRL-12532, RRID:CVCL_0062), NCI-H1876 small cell lung carcinoma (CRL-5902, RRID:CVCL_1503), NCI-H510A small cell lung carcinoma (HTB-184, RRID:CVCL_1565), NCI-H1417 (CRL-5869, RRID:CVCL_1469), and NCI-H196 small cell lung carcinoma (CRL-5823, RRID:CVCL_1509). Dr. Peter Houghton (Greehey Children's Cancer Research Institute, University of Texas Health Science Center, San Antonio, TX) provided Rh-18 rhabdomyosarcoma (RRID:CVCL_1659). Pooled donor human umbilical vein endothelial cells (HUVEC, Lonza, cat. CC-2519) and human mesenchymal stem cells (hMSC, Lonza, cat. PT-2501) were purchased from Lonza (Walkersville, MD).
# Cell Culture. […]
# 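Note: spheroids exposed to compounds for 7 days.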
# 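Throughout, for viability, T/C: 100% = DMSO vehicle control wells.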
smiles,measurement,setting,value
Cc1nc(N2CCC3(CC2)COC(C)C3N)c(CO)nc1Sc1ccnc(N)c1Cl (centres undefined),"viability, T/C",compound 0.00949 µM,89.6% and 113% and 112%
same,"viability, T/C",compound 0.03 µM,90.4% and 106% and 101%
same,"viability, T/C",compound 0.0949 µM,83.9% and 93.1% and 97%
same,"viability, T/C",compound 0.3 µM,84.7% and 97.1% and 94.5%
same,"viability, T/C",compound 0.949 µM,72.8% and 94.4% and 71.6%
same,"viability, T/C",compound 3 µM,57.9% and 89.5% and 90.1%
same,pIC50,curve of compound,< 5.52
C#Cc1c(F)ccc2cc(O)cc(-c3ncc4c(N5CC6CCC(C5)N6)nc(OCC56CCCN5CC(F)C6)nc4c3F)c12 (centres undefined) + Cc1c(S(C)(=O)=O)c(-c2cc(F)cc(N3CCN(c4ccc(NS(=O)(=O)c5ccc(NC(CCN6CCC(C(=O)OCCCP(=O)(O)O)CC6)CSc6ccccc6)c(S(=O)(=O)C(F)(F)F)c5)cc4)CC3)c2)c(-c2ccc(Cl)cc2)n1C(C)C,pIC50,"curve of first compound, second compound 0.0316 µM",> 7.50
same,pIC50,"curve of first compound, second compound 0.1 µM",> 7.50
same,pIC50,"curve of first compound, second compound 0.316 µM",> 7.50
same,pIC50,"curve of first compound, second compound 1 µM",> 7.50
same,pIC50,"curve of first compound, second compound 3.16 µM",> 7.50
same,pIC50,"curve of first compound, second compound 10 µM",> 7.50
same,"viability, T/C","second compound 0.0316 µM, first compound 0.0316 µM",49.8%
same,"viability, T/C","second compound 0.0316 µM, first compound 0.1 µM",44.9%
same,"viability, T/C","second compound 0.0316 µM, first compound 0.316 µM",23.1%
same,"viability, T/C","second compound 0.0316 µM, first compound 1 µM",24%
same,"viability, T/C","second compound 0.0316 µM, first compound 3.16 µM",18.4%
same,"viability, T/C","second compound 0.0316 µM, first compound 10 µM",15.9%
same,"viability, T/C","second compound 0.1 µM, first compound 0.0316 µM",46.2%
same,"viability, T/C","second compound 0.1 µM, first compound 0.1 µM",31.1%
same,"viability, T/C","second compound 0.1 µM, first compound 0.316 µM",23.3%
same,"viability, T/C","second compound 0.1 µM, first compound 1 µM",18.4%
same,"viability, T/C","second compound 0.1 µM, first compound 3.16 µM",17.8%
same,"viability, T/C","second compound 0.1 µM, first compound 10 µM",17.1%
same,"viability, T/C","second compound 0.316 µM, first compound 0.0316 µM",31.6%
same,"viability, T/C","second compound 0.316 µM, first compound 0.1 µM",34.9%
same,"viability, T/C","second compound 0.316 µM, first compound 0.316 µM",15.9%
same,"viability, T/C","second compound 0.316 µM, first compound 1 µM",15.6%
same,"viability, T/C","second compound 0.316 µM, first compound 3.16 µM",11.6%
same,"viability, T/C","second compound 0.316 µM, first compound 10 µM",9.78%
same,"viability, T/C","second compound 1 µM, first compound 0.0316 µM",16.1%
same,"viability, T/C","second compound 1 µM, first compound 0.1 µM",15.3%
same,"viability, T/C","second compound 1 µM, first compound 0.316 µM",11.9%
same,"viability, T/C","second compound 1 µM, first compound 1 µM",9.24%
same,"viability, T/C","second compound 1 µM, first compound 3.16 µM",7.76%
same,"viability, T/C","second compound 1 µM, first compound 10 µM",7.16%
same,"viability, T/C","second compound 3.16 µM, first compound 0.0316 µM",12.6%
same,"viability, T/C","second compound 3.16 µM, first compound 0.1 µM",11.4%
same,"viability, T/C","second compound 3.16 µM, first compound 0.316 µM",7.77%
same,"viability, T/C","second compound 3.16 µM, first compound 1 µM",7.76%
same,"viability, T/C","second compound 3.16 µM, first compound 3.16 µM",6.82%
same,"viability, T/C","second compound 3.16 µM, first compound 10 µM",3.79%
same,"viability, T/C","second compound 10 µM, first compound 0.0316 µM",8.21%
same,"viability, T/C","second compound 10 µM, first compound 0.1 µM",6.93%
same,"viability, T/C","second compound 10 µM, first compound 0.316 µM",5%
same,"viability, T/C","second compound 10 µM, first compound 1 µM",5.16%
same,"viability, T/C","second compound 10 µM, first compound 3.16 µM",3.49%
same,"viability, T/C","second compound 10 µM, first compound 10 µM",3.88%
